The text below walks through data of patent US20040110768A1, “Bombesin receptor antagonists” (priority 2000, published 2004).

Structures can show the parent of a compound that is named as a salt.

Data set [1] deals with Ovariectomised adult female Sprague Dawley rats. As to the kind of experiment: Female rat sexual proceptivity test. The class given is in vivo. To be noted: for difference in the percentage of time spent investigating the male stimuli minus female stimuli / MED, difference in percentage of time spent investigating male minus female stimuli: 1 h before test. Here is the method:
Ovariectomised adult female Sprague Dawley rats (180-200 g) were housed in groups of 6 in a reversed lighting system of 12 h light:dark (lights off 7.00-19.00 h). Two weeks after ovariectomy they were used for sexual activity tests. Animals were Adapted to the apparatus (in the absence of stimuli animals) for 10 min on 2 Consecutive days prior to testing. The experiments started at least 5 h into the dark period. Tests were carried out in a circular arena of 90 cm diameter, surrounded by a 30 cm high wall. Two small cages with wire-mesh front (15×15 cm) are fixed into the wall such that the front of the cage is “flush” with the wall and the 2 cages are opposite each other. They contain two stimuli animals: an intact sexually experienced male and a receptive female (ovariectomised, primed with 5 μg oestradiol benzoate dissolved in corn oil and injected subcutaneously 48 h before the test and with 0.5 mg of progesterone 4 h before the test). Sexually naïve test and control animals were used. Forty eight hours before the tests, both the test and control animals were primed with 5 μg oestradiol benzoate. Test animals were treated with the above compound (1)(30-100 mg/kg) which was dissolved in PEG 200 vehicle and administered orally in a 1 ml/kg volume 1 h before each test. For animals used as positive controls, progesterone (0.5 mg/0.1 ml) was dissolved in corn oil and administered subcutaneously (s.c.), 4 h before the test. Test and control animals were introduced one at a time for 10-minute periods into the arena. During the 10-min test, the time that the test or positive control animal spent investigating each stimulus animal was noted. The arena was thoroughly cleaned between animals. The position of the male/female stimuli boxes was randomised between animals, in order to avoid place preference. The difference in the percentage of time spent investigating male minus female was calculated, out of the total time spent investigating stimuli animals.
Example 21 was repeated except that compound (1) (3-30 mg/kg) was dissolved in 0.5% methyl cellulose and was administered p.o. in a dosing volume of 3 ml/kg 1 h before tests. Progesterone (0.5 mg/0.1 ml) was dissolved in corn oil and administered s.c., 4 h before test, as a positive control.

Data set [2] has the same test system. Put plainly: Female rat sexual receptivity test (lordosis quotient). The format is in vivo. Here is the method: Ovariectomised adult female Sprague Dawley rats (180-200 g) were housed in groups of 6 in a reversed lighting system of 12 h light:dark (lights off 7.00-19.00 h). Two weeks after ovariectomy they were used for sexual activity tests. The experiments started at least 5 h into the dark period. Compound (1) was dissolved in PEG 200 vehicle and administered orally. Quinelorane dihydrochloride (LY 163,502, 6.25 μg/kg) was dissolved in water and administered s.c., as a positive control. Both compounds were administered in a 1-ml/kg volume. Forty eight hours before tests, the animals were primed with 5 μg oestradiol benzoate dissolved in corn oil and injected s.c. The females were placed with a series of vigorous male rats and subjected to 10 mounts. The lordotic response of the animal was recorded and expressed as a percentage of the mounts (i.e. lordosis quotient, LQ). […] Animals showing higher LQ were not included in the study. Each rat was tested prior to administration of the compound (1) and then tested similarly at 1 h and at 90 min post-injection of compound (1) or quinelorane respectively.

In the case of `C[C@@](Cc1c[nH]c2ccccc12)(Nc1nc2ccccc2o1)C(=O)NCC1(c2ccccn2)CCCCC1` [Example 9, (S)-2-(Benzooxazol-2-ylamino)-3-(1H-indol-3-yl)-2-m thyl-N-(1-pyridin-2-yl-cyclohxylmethyl)-propionamide], the melting point fell in the range of 198 to 200 °C.
Still for that read-out and setting: then `COc1ccc(C2(CNC(=O)[C@](C)(Cc3c[nH]c4ccccc34)Nc3nc(-c4ccc(C#N)cc4)co3)CCCCC2)nc1` [Example 5, (S)-2-[4-(4-Cyano-phenyl)-oxazol-2-ylamino]-3-(1H-indol-3-yl)-N-[1-(5-methoxy-pyridin-2-yl)-cyclohexylmethyl]-2-methyl-propionamide], with 105 to 108 °C; and `C[C@@](Cc1c[nH]c2ccccc12)(NCc1ccc([N+](=O)[O-])cc1)C(=O)NCC1(c2ccccn2)CCCCC1` [Example 19, (S)-3-(1H-Indol-3-yl)-2-methyl-2-(4-nitro-benzylamino)-N-(1-pyridin-2-yl-cyclohexylmethyl)-propionamide], with 58 to 60 °C; and `C[C@@](Cc1c[nH]c2ccccc12)(Nc1cncc2ccccc12)C(=O)NCC1(c2ccccn2)CCCCC1` [Example 11, (S)-3-(1H-Indol-3-yl)-2-(isoquinolin-4-ylamino)-2-methyl-N-(1-pyridin-2-yl-cyclohexylmethyl)-propionamide], with 98 to 101 °C.
`CC(=O)[C@H]1CC[C@H]2[C@@H]3CCC4=CC(=O)CC[C@]4(C)[C@H]3CC[C@]12C` [progesterone, reference compound]: the “effect on proceptivity (positive control)” value in data set [1] (0.5 mg/0.1 ml in corn oil s.c., 4 h before test) is recorded as “maximal”.
As for `CCCN1CCC[C@@H]2Cc3nc(N)ncc3C[C@H]21` [quinelorane, Quinelorane dihydrochloride, reference compound], the “lordosis quotient (LQ) versus before administration” value in data set [2] (6.25 μg/kg s.c. in water, 90 min after administration) is “significantly (P<0.01) increased”.
For `C[C@@](Cc1c[nH]c2ccccc12)(Nc1nc(-c2ccc([N+](=O)[O-])cc2)co1)C(=O)NCC(=O)c1ccccc1` [Example 3, (S)-3-(1H-Indol-3-yl)-2-methyl-2-[4-(4-nitro-phenyl)-oxazol-2-ylamino]-N-(2-oxo-2-phenyl-ethyl)-propionamide], the melting point lay in the range of 80 to 90 °C.
On the same count and under the same terms, in the case of `COc1ccc(C2(CNC(=O)[C@](C)(Cc3c[nH]c4ccccc34)Nc3nc(-c4ccc([N+](=O)[O-])cc4)cs3)CCCCC2)nc1` [Example 8, (S)-3-(1H-Indol-3-yl)-N-[1-(5-methoxy-pyridin-2-yl)-cyclohexylmethyl]-2-methyl-2-[4-(4-nitro-phenyl)-thiazol-2-ylamino]-propionamide] it was 110 to 114 °C; in that of `CCc1coc(N[C@@](C)(Cc2c[nH]c3ccccc23)C(=O)NCC2(c3ccc(OC)cn3)CCCCC2)n1` [Example 7, (S)-2-(4-Ethyl-oxazol-2-ylamino)-3-(1H-indol-3-yl)-N-[1-(5-methoxy-pyridin-2-yl)-cyclohexylmethyl]-2-methyl-propionamide], 60 to 65 °C.
Still for that read-out and setting: in the case of `COc1ccc(C2(CNC(=O)[C@](C)(Cc3c[nH]c4ccccc34)Nc3nc(-c4ccccc4)co3)CCCCC2)nc1` [Example 6, (S)-3-(1H-Indol-3-yl)-N-[1-(5-methoxy-pyridin-2-yl)-cyclohexylmethyl]-2-methyl-2-(4-phenyl-oxazol-2-ylamino)-propionamide] it was 85 to 90 °C.
`COc1ccc(C2(CNC(=O)[C@](C)(Cc3c[nH]c4ccccc34)Nc3nc(-c4ccc([N+](=O)[O-])cc4)co3)CCCCC2)nc1` [Example 1, (S)-3-(1H-Indol-3-yl)-N-[1-(5-methoxy-pyridin-2-yl)-cyclohexylmethyl]-2-methyl-2-[4-(4-nitro-phenyl)-oxazol-2-ylamino]-propionamide] registered a melting point of 100 to 105 °C. Moreover, the “lordosis quotient (LQ) versus before administration” value in data set [2] (PEG 200, single oral administration, 10-100 mg/kg, 1 h after administration) is “increased”. Further, the “difference in the percentage of time spent investigating the male stimuli minus female stimuli” value in data set [1] (0.5% methyl cellulose, p.o., 3-30 mg/kg) was “increased”. Also, in data set [1] (0.5% methyl cellulose, p.o.), the “MED, difference in percentage of time spent investigating male minus female stimuli” value stood at 10 mg/kg. Besides, in data set [1] (PEG 200 vehicle, oral, 30-100 mg/kg), the “difference in the percentage of time spent investigating the male stimuli minus female stimuli” value is reported as “increased”. The “MED, difference in percentage of time spent investigating male minus female stimuli” value in data set [1] (PEG 200 vehicle, oral) is on record as 100 mg/kg. In data set [1] (oral, MED 10 vs 100 mg/kg), the “increase in potency in methyl cellulose compared to PEG 200 vehicle” value is given as 10 fold.
The molecule `COCC1(CNC(=O)[C@](C)(Cc2c[nH]c3ccccc23)Nc2nc(-c3ccc([N+](=O)[O-])cc3)co2)CCCCC1` [Example 2, (S)-3-(1H-Indol-3-yl)-N-(1-methoxymethyl-cyclohexylmethyl)-2-methyl-2-[4-(4-nitro-phenyl)-oxazol-2-ylamino]-propionamide] displayed a melting point of 189 to 192 °C.
Still for that read-out and setting: in the case of `C[C@@](Cc1c[nH]c2ccccc12)(Nc1cncnc1)C(=O)NCC1(c2ccccn2)CCCCC1` [Example 12, (S)-3-(1H-Indol-3-yl)-2-methyl-N-(1-pyridin-2-yl-cyclohexylmethyl)-2-(pyrimidin-5-ylamino)-propionamide] it was 95 to 98 °C.
`C[C@@](Cc1c[nH]c2ccccc12)(Nc1ccncc1)C(=O)NCC1(c2ccccn2)CCCCC1` [Example 10, (S)-3-(1H-Indol-3-yl)-2-methyl-2-(pyridin-4-ylamino)-N-(1-pyridin-2-yl-cyclohexylmethyl)-propionamide] yielded a melting point of 180 to 195 °C.
Still for that read-out and setting: then `Cc1cccc(N[C@@](C)(Cc2c[nH]c3ccccc23)C(=O)NCC2(c3ccccn3)CCCCC2)c1` [Example 14, (S)-3-(1H-Indol-3-yl)-2-methyl-N-(1-pyridin-2-yl-cyclohexylmethyl)-2-m-tolylamino-propionamide], with 70 to 75 °C.
